The assay deals with T1, human vasopressin V1a receptor subtype (Homo sapiens, UniProt P37288).
T1 construct: host or cells: CHO cells, stably transfected (pZeoSV vector for the Thibonnier cells)
The assay can be described thus: Vasopressin binding in CHO cell membranes expressing human vasopressin V1a subtype receptors. The following applies: [3H]Manning ligand; for IC50: value in parentheses. An excerpt: Vasopressin Binding in Chinese Hamster Ovary Cell Membranes Expressing Human Vasopressin V1a Subtype Receptors
Chinese hamster ovary cells (CHO cells) stably transfected with the human vasopressin V1a subtype receptors were either obtained from Biosignal Inc., 1744 rue Williams, Montreal, Quebec, Canada or obtained from M. Thibonnier, Case Western Reserve University School of Medicine, Cleveland, Ohio.
A. Passaging and Amplification of Cells:
CHO cells transfected with the human vasopressin V1a subtype receptors obtained from M. Thibonnier (pZeoSV vector) are allowed to grow to confluency (approx. >90%) in T-150 flasks under sterile conditions, in a cell culture medium consisting of F-12 Nutrient Mixture (HAM) with L-glutamine (Gibco Cat.# 11765-054) containing 15 mM HEPES (Gibco Cat.# 15630-080), 1% antibiotic/antimycotic (add 5 mL 100×, Gibco Cat.# 15240-062 per 500 mL F-12), 250 μg/mL Zeocin (add 1.25 mL of 100 mg/mL Invitrogen R-250-01 per 500 mL F-12) and 10% Fetal Bovine Serum (Qualified, heat inactivated, Gibco Cat.# 16140-063). The medium is removed by aspiration and the cells are washed with 10 mL of Hank's Balanced Salt solution (Gibco Cat.# 14175-095). The salt solution is removed by aspiration and the cells are trypsinized with 5 mL of trypsin-EDTA (0.05% trypsin, 0.53 mM EDTA-4Na, Gibco Cat.# 25300-070) for 1 min. The trypsin is removed by aspiration and the cells dislodged by tapping. Cell Culture medium (eg, 30 mL for 1:30 split) is immediately added and mixed well to inactivate trypsin. 1 mL of detached cells is added to new culture flasks containing fresh cell culture medium (eg, into 25 mL per T-150 flask), and mixed gently. The cells are incubated at 37° C. in 5% CO2. The medium is changed at 3 to 4 days interval (or as appropriate). The cells grow to confluency (approx. >75%-95%) within 7-8 days. All steps are done under sterile conditions.
The cells are washed twice gently with Hank's Balanced Salt solution (e.g,. use 10 mL per T-150 flask). The excess is removed and the cells are bathed for 15-30 min. in an enzyme-free Cell Dissociation Buffer (e.g. use 8 mL Hank's Based, Gibco Cat.# 13150-016 per T-150 flask) until the cells are loosened. The contents are transferred to centrifuge tubes (50 mL) kept an ice bath. All subsequent steps are done at 4° C. The tubes are centrifuged at 300×g for 15 min (1380 rpm on SORVAL, Model RT6000D, using the rotor for 50 mL tubes). The supernatant is discarded and the cells suspended in homogeneizing buffer (10 mM Tris-HCl containing 0.25 M sucrose and 1 mM EDTA, pH 7.4) ensuring that the volume of the buffer is about ten times the volume of the cell pellet. The cells are pooled into a centrifuge tube (50 mL) and homogenized with Polytron at setting 6 for 10 sec. The homogenate is transferred into a Potter-Elvjehm homogenizer and homogenized with 3 strokes. The homogenate is centrifuged at 1500×g for 10 min at 4° C. (3100 rpm using SORVAL, model RT6000D, using the rotor for 50 mL tubes). The pellet is discarded. The supernatant is centrifuged at 100,000×g for 60 min. at 4° C. (Beckman L8-80M ultracentrifuge; spin at 37,500 rpm with rotor type 70 Ti for 50 mL tubes; 38,000 rpm with type […] for 15 mL tubes; or 35,800 rpm with rotor type 45Ti). The supernatant is discarded and the pellet suspended in 3 to 4 mL of Tris buffer (50 mM TRIS-HCl, pH 7.4). The protein content is estimated by the Bradford or Lowry method. The volume of the membrane suspension is adjusted with the membrane buffer (50 mM Tris-HCl containing 0.1% BSA and 0.1 mM PMSF) to give 3.0 mg/mL (or as appropriate) of protein. The membranes are aliquoted and stored at −70° C.
C. Radioligand Binding Assay: […]

Where a name gives a salt, the structure may show the parent alone.

Broadly, the IC50 is the concentration at which inhibition is half-maximal.

T1 sequence (P37288 whole entry): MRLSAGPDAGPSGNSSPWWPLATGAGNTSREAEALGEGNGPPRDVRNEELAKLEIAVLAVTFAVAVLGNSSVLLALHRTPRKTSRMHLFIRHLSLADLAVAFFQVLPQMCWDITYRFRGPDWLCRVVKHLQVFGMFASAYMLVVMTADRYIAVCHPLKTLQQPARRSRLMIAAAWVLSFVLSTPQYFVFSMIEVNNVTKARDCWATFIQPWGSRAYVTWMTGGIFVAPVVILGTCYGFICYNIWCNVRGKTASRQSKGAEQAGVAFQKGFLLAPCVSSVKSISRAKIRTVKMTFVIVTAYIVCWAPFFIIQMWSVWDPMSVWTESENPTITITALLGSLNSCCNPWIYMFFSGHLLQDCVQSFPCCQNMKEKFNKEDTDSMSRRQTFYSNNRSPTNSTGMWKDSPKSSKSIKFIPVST

For `Cc1cc(C(=O)N2Cc3ccc(C(=O)N(C)CCc4ccncc4)n3Cc3ccccc32)ccc1C1=CCCCC1` [Example 13, 10-[4-(1-Cyclohex-1-en-1-yl)-3-methylbenzoyl]-N-methyl-N-[2-(4-pyridinyl)ethyl]-10,11-dihydro-5H-pyrrolo[2,1-c][1,4]benzodiazepine-3-carboxamide], the “V1a % inhibition @ 100 nM” value is on record as 51%.
Take `Cc1cc(C(=O)N2Cc3ccc(C(=O)NCc4ccccn4)n3Cc3ccccc32)ccc1C1=CCCCC1` [Example 5, 10-[4-(1-Cyclohex-1-en-1-yl)-3-methylbenzoyl]-N-(2-pyridinylmethyl)-10,11-dihydro-5H-pyrrolo[2,1-c][1,4]benzodiazepine-3-carboxamide]: the “V1a % inhibition @ 100 nM” value is 18%.
`Cc1cc(C(=O)N2Cc3ccc(C(=O)NCc4cccnc4)n3Cc3ccccc32)ccc1C1=CCCCC1` [Example 6, 10-[4-(1-Cyclohex-1-en-1-yl)-3-methylbenzoyl]-N-(3-pyridinylmethyl)-10,11-dihydro-5H-pyrrolo[2,1-c][1 ,4]benzodiazepine-3-carboxamide]: the “V1a % inhibition @ 100 nM” value stood at 6%.
On to `CC1=C(c2ccc(C(=O)N3Cc4ccc(C(=O)N(C)Cc5cccnc5)n4Cc4ccccc43)cc2C)CCC[C@H]1O` [Example 3, 10-[4-((3R)-3-Hydroxy-2-methyl-cyclohex-1-en-1-yl)-3-methyl-benzoyl]-10,11-dihydro-5H-pyrrolo[2,1-c][1,4]benzodiazepine-3-carboxylic acid methyl-pyridin-3-yl methyl-amide], for which the “V1a % inhibition @ 100 nM” value is 41%.
`Cc1cc(C(=O)N2Cc3ccc(C(=O)N4CCN(c5ccncc5)CC4)n3Cc3ccccc32)ccc1C1=CCCCC1` [Example 12, {10-[4-(1-Cyclohex-1-en-1-yl)-3-methylbenzoyl]-10,11-dihydro-5H-pyrrolo[2,1--c][1,4]benzodiazepin-3-yl}[4-(4-pyridinyl)-1-piperazinyl]methanone]: the “V1a % inhibition @ 100 nM” value was 73%.
Still for that read-out and setting: the value for `Cc1cc(C(=O)N2Cc3ccc(C(=O)NCCc4ccccn4)n3Cc3ccccc32)ccc1C1=CCCCC1` [Example 7, 10-[4-(1-Cyclohex-1-en-1-yl)-3-methylbenzoyl]-N-[2-(2-pyridinyl)ethyl]-10,11-pyrrolo[2,1-c][1,4]benzodiazepine-3-carboxamide] was 13%; that for `CC1=C(c2ccc(C(=O)N3Cc4ccc(C(=O)N(C)Cc5cccnc5)n4Cc4ccccc43)cc2C)CCC[C@H]1O.O=C(O)C(O)C(O)C(=O)O` [Example 4, 10-[4-((3R)-3-Hydroxy-2-methyl-cyclohex-1-en-1-yl)-3-methyl-benzoyl]-10,11-dihydro-5H-pyrrolo[2,1-c][1,4]benzodiazepine-3-carboxylic acid methyl-pyridin-3-yl methyl-amide L-(+)-tartaric acid salt] was 61%.
As for `Cc1cc(C(=O)N2Cc3ccc(C(=O)NCc4ccncc4)n3Cc3ccccc32)ccc1C1=CCCCC1` [Example 10, 10-[4-(1-Cyclohex-1-en-1-yl)-3-methylbenzoyl]-N-(4-pyridinylmethyl)-10,11-dihydro-5H-pyrrolo[2,1-c][1,4]benzodiazepine-3-carboxamide], the “V1a % inhibition @ 100 nM” value stood at 13%.
Take `Cc1cc(C(=O)N2Cc3ccc(C(=O)N(C)CCc4ccccn4)n3Cc3ccccc32)ccc1C1=CCCCC1` [Example 8, 10-[4-(1-Cyclohex-1-en-1-yl)-3-methylbenzoyl]-N-methyl-N-[2-(2-pyridinyl)ethyl]-10,11-dihydro-5H-pyrrolo[2,1-c][1 ,4]benzodiazepine-3-carboxamide]: the “V1a % inhibition @ 100 nM” value is on record as 43%.
For the compound `Cc1cc(C(=O)N2Cc3ccc(C(=O)N4CCN(c5ccccn5)CC4)n3Cc3ccccc32)ccc1C1=CCCCC1` [Example 9, {10-[4-(1-Cyclohex-1-en-1-yl)-3-methylbenzoyl]-10,11-dihydro-5H-pyrrolo[2,1-c][1,4]benzodiazepin-3-yl}[4-(2-pyridinyl)-1-piperazinyl]methanone], the “V1a % inhibition @ 100 nM” value stood at 5%.
For the compound `COc1cc(C2=CCCCC2)c(Cl)cc1C(=O)N1Cc2ccc(C(=O)N(C)Cc3cccnc3)n2Cc2ccccc21` [Example 1, 10-(5-Chloro-4-cyclohex-1-en-1-yl-2-me3thoxybenzoyl)-N-methyl-N-(pyridin-3-ylmethyl)-10,11-dihydro-5H-pyrrolo [2,1-c][1,4]benzodiazepine-3-carboxamide], the IC50 is 1090 nM.
Take `Cc1cc(C(=O)N2Cc3ccc(C(=O)N(C)Cc4cccnc4)n3Cc3ccccc32)ccc1C1=CCCCC1` [Example 11, 10-[4-(1-Cyclohex-1-en-1-yl)-3-methylbenzoyl]-N-methyl-N-(3-pyridinylmethyl)-10,11-dihydro-5H-pyrrolo[2,1-c][1,4]benzodiazepine-3-carboxamide]: the “V1a % inhibition @ 100 nM” value was determined as 54%.
For `COc1cc(C2=CCCCC2)c(Cl)cc1C(=O)N1Cc2ccc(C(=O)N(C)Cc3cccnc3)n2Cc2ccccc21` [Example 2, 10-(5-Chloro-4-cyclohex-1-en-1-yl-2-methoxybenzoyl)-N-methyl-N-(pyridin-3-ylmethyl)-10,11-dihydro-5H-pyrrolo[2,1-c][1,4]benzodiazepine-3-carboxamide L-(+)-tartaric acid salt hemihydrate], the half-inhibitory concentration (IC50) worked out at 1320 nM.

These data come from patent publication US20030055046A1, “Novel pyrido cyclohexenyl phenyl carboxamides tocolytic oxytocin receptor antagonists” (Wyeth, priority 2001, published 2003).
